Laboratory results from publication PMC6440464 (PeerJ, 2019).
Values joined by “and” are separate entries in the source; they are usually repeats but may differ in a detail not shown here. Equal values may be shown once.

Experiment: Stability of the analytes in rat plasma QC samples at different storage conditions
Assay type: in vitro ADME
Settings: for Post-preparation stability (4℃ for 24 h) Measured Conc.: extracted plasma samples in auto sampler rack; for Post-preparation stability (4℃ for 24 h) Measured Conc. / Free-thaw stability (3 free-thaw cycles) Measured Conc. / Long-term stability (-80℃ for 15 d) Measured Conc. / Short-term stability (25℃ for 12 h) Measured Conc.: n=5; for Free-thaw stability, Test Conc., AV / Free-thaw stability, Test Conc. / Post-preparation stability, Test Conc., AV / Post-preparation stability, Test Conc. / Short-term stability, Test Conc., AV / Short-term stability, Test Conc. / Long-term stability, Test Conc., AV / Long-term stability, Test Conc.: plasma; for Free-thaw stability, Test Conc., AV / Free-thaw stability, Test Conc.: 3 free-thaw cycles; for Free-thaw stability, Test Conc., AV / Post-preparation stability, Test Conc., AV / Short-term stability, Test Conc., AV / Long-term stability, Test Conc., AV: AV of 5 replicates; for Free-thaw stability, Test Conc. / Post-preparation stability, Test Conc. / Short-term stability, Test Conc. / Long-term stability, Test Conc.: single replicates NO.1-NO.5, listed as Quercetin-3-O-β-D-glucuronide (QG); for Post-preparation stability, Test Conc., AV / Post-preparation stability, Test Conc.: 4℃ for 24 h; for Short-term stability, Test Conc., AV / Short-term stability, Test Conc.: 25℃ for 12 h; for Long-term stability, Test Conc., AV / Long-term stability, Test Conc.: -80℃ for 15 d; for Free-thaw stability (3 free-thaw cycles) Measured Conc. / Long-term stability (-80℃ for 15 d) Measured Conc. / Short-term stability (25℃ for 12 h) Measured Conc.: rat plasma
Procedure: The stabilities of Qr, IQ, and QG in plasma were assessed by analyzing QC samples at different storage conditions. The stabilities of three flavonoids in plasma were studied by analyzing three concentration levels of QC samples (n = 5) at room temperature (25 °C) for 12 h, at long-term storage (−80 °C for 15 days), after three freeze (−80 °C) and thaw (room temperature) cycles, and at auto sampler rack storage (4 °C for 24 h).

[1] = high QC, nominal 8400.0 (Qr), 976.0 (IQ), 10000.0 (QG) ng/mL
[2] = low QC, nominal 65.6 (Qr), 48.8 (IQ), 100.0 (QG) ng/mL
[3] = medium QC, nominal 525.0 (Qr), 244.0 (IQ), 1000.0 (QG) ng/mL

Post-preparation stability (4℃ for 24 h) Measured Conc. [1]: 9409.6 ± 569.5 ng/mL
Post-preparation stability (4℃ for 24 h) Measured Conc. [2]: 97.2 ± 6.0 ng/mL
Post-preparation stability (4℃ for 24 h) Measured Conc.: 910.7 ± 68.0 ng/mL
Free-thaw stability, Test Conc., AV (nominal Conc. 100.00 ng/mL): 98.37 ng/mL
Free-thaw stability, Test Conc., AV (nominal Conc. 1000.00 ng/mL): 954.92 ng/mL
Free-thaw stability, Test Conc., AV (nominal Conc. 10000.00 ng/mL): 9353.20 ng/mL
Post-preparation stability, Test Conc., AV (nominal Conc. 100.00 ng/mL): 97.18 ng/mL
Post-preparation stability, Test Conc., AV (nominal Conc. 1000.00 ng/mL): 910.72 ng/mL
Post-preparation stability, Test Conc., AV (nominal Conc. 10000.00 ng/mL): 9409.60 ng/mL
Short-term stability, Test Conc., AV (nominal Conc. 100.00 ng/mL): 89.29 ng/mL
Short-term stability, Test Conc., AV (nominal Conc. 1000.00 ng/mL): 943.20 ng/mL
Short-term stability, Test Conc., AV (nominal Conc. 10000.00 ng/mL): 9334.60 ng/mL
Long-term stability, Test Conc., AV (nominal Conc. 100.00 ng/mL): 98.57 ng/mL
Long-term stability, Test Conc., AV (nominal Conc. 1000.00 ng/mL): 941.48 ng/mL
Long-term stability, Test Conc., AV (nominal Conc. 10000.00 ng/mL): 9985.00 ng/mL
Free-thaw stability (3 free-thaw cycles) Measured Conc. [1]: 9353.2 ± 620.8 ng/mL
Long-term stability (-80℃ for 15 d) Measured Conc. [1]: 9985.0 ± 971.4 ng/mL
Short-term stability (25℃ for 12 h) Measured Conc. [1]: 9334.6 ± 320.2 ng/mL
Free-thaw stability (3 free-thaw cycles) Measured Conc. [2]: 98.4 ± 7.0 ng/mL
Long-term stability (-80℃ for 15 d) Measured Conc. [2]: 98.6 ± 10.2 ng/mL
Short-term stability (25℃ for 12 h) Measured Conc. [2]: 89.3 ± 6.5 ng/mL
Free-thaw stability (3 free-thaw cycles) Measured Conc. [3]: 954.9 ± 93.5 ng/mL
Long-term stability (-80℃ for 15 d) Measured Conc. [3]: 941.5 ± 102.3 ng/mL
Short-term stability (25℃ for 12 h) Measured Conc. [3]: 943.2 ± 64.9 ng/mL
Compound: O=C(O)[C@H]1O[C@@H](Oc2c(-c3ccc(O)c(O)c3)oc3cc(O)cc(O)c3c2=O)[C@H](O)[C@@H](O)[C@@H]1O [QG, Quercetin-3-O-β-D-glucuronide]
Free-thaw stability, Test Conc. (nominal Conc. 100.00 ng/mL): 105.25 ng/mL and 86.98 ng/mL and 102.05 ng/mL and 100.21 ng/mL and 97.34 ng/mL
Free-thaw stability, Test Conc. (nominal Conc. 1000.00 ng/mL): 860.30 ng/mL and 851.00 ng/mL and 988.40 ng/mL and 1022.10 ng/mL and 1052.80 ng/mL
Free-thaw stability, Test Conc. (nominal Conc. 10000.00 ng/mL): 8753.00 ng/mL and 9439.00 ng/mL and 10058.00 ng/mL and 9832.00 ng/mL and 8684.00 ng/mL
Post-preparation stability, Test Conc. (nominal Conc. 100.00 ng/mL): 105.22 ng/mL and 101.31 ng/mL and 93.07 ng/mL and 95.83 ng/mL and 90.49 ng/mL
Post-preparation stability, Test Conc. (nominal Conc. 1000.00 ng/mL): 905.70 ng/mL and 890.50 ng/mL and 1027.40 ng/mL and 853.70 ng/mL and 876.30 ng/mL
Post-preparation stability, Test Conc. (nominal Conc. 10000.00 ng/mL): 8728.00 ng/mL and 8919.00 ng/mL and 9825.00 ng/mL and 10046.00 ng/mL and 9530.00 ng/mL
Short-term stability, Test Conc. (nominal Conc. 100.00 ng/mL): 86.17 ng/mL and 83.32 ng/mL and 97.85 ng/mL and 94.48 ng/mL and 84.64 ng/mL
Short-term stability, Test Conc. (nominal Conc. 1000.00 ng/mL): 905.00 ng/mL and 917.50 ng/mL and 1029.40 ng/mL and 991.30 ng/mL and 872.80 ng/mL
Short-term stability, Test Conc. (nominal Conc. 10000.00 ng/mL): 9717.00 ng/mL and 8935.00 ng/mL and 9106.00 ng/mL and 9353.00 ng/mL and 9562.00 ng/mL
Long-term stability, Test Conc. (nominal Conc. 100.00 ng/mL): 87.09 ng/mL and 91.05 ng/mL and 96.73 ng/mL and 107.32 ng/mL and 110.64 ng/mL
Long-term stability, Test Conc. (nominal Conc. 1000.00 ng/mL): 839.70 ng/mL and 1104.80 ng/mL and 874.40 ng/mL and 932.10 ng/mL and 956.40 ng/mL
Long-term stability, Test Conc. (nominal Conc. 10000.00 ng/mL): 10543.00 ng/mL and 10195.00 ng/mL and 11086.00 ng/mL and 9530.00 ng/mL and 8571.00 ng/mL
